“Also recorded” adds a separate entry of the source. Marks after values point to notes of the source that are not given here. One block for each compound: values may come before it.
Tests used:
[1] = parameters: species or system human; details: in vivo
Experimental: (§1) A study was undertaken to evaluate the effectiveness of the composition of the present invention and its effect on the patients. Thirty-seven healthy non-smoking post-menopausal women (50˜70 yr) were randomly assigned to one of 5 groups, to take a daily dose of mixed carotenoids (β-carotene, lutein and lycopene, 4 mg each), or 12 mg of single carotenoid (β-carotene, lutein or lycopene), or placebo for 8 weeks. Plasma carotenoid concentrations were analyzed by an HPLC system with a C30 column, and lymphocyte DNA damage was determined by a single cell gel electrophoresis (comet) assay.
Subjects (50-70 yr, n=37) were housed at the MRU for the first two days of the study. On the first day of the study, subjects were randomly assigned to take either 1) placebo, 2) 4 mg each of lutein, β-carotene and lycopene, 3) 4 mg of lutein, 4) 4 mg of β-carotene, or 5) 4 mg of lycopene with a meal containing 25 g of fat. Subjects were provided with a two-week supply of placebo or carotenoids along with instructions how to consume the supplements while being maintained with a low carotenoid diet on each sampling day (days 1, 15, 29 & 43). In particular, they were instructed to take the carotenoid supplements with their first meal of the day, and this food source should include 10 g of fat to insure maximum absorption of the carotenoid supplement. 10 mL of blood will be drawn at 0 (fasting), 2, 4, 6, 8, 10, 12 and 14 hours after the carotenoid dose to obtain information on the early kinetics of carotenoid absorption and tissue uptake. The subjects had the option to have an intravenous line inserted for blood drawing (I.V.). If they chose this option, 12 mL of blood was drawn for each sample and the first 2 mL of blood was discarded. Chylomicrons (the triglyceride-rich fraction of plasma) were isolated and analyzed for carotenoids to determine the plasma response kinetics in these 14 hr samples. Thereafter, subjects were discharged from the HNRC with a two-week supply of placebo or carotenoids along with instructions on how to consume the doses while being maintained on a low carotenoid diet.
(§2) From the second day of intervention, subjects took either 1) placebo, 2) 4 mg of lutein, 4 mg of β-carotene and 4 mg of lycopene, 3) 12 mg of lutein, 4) 12 mg of β-carotene, or 5) 12 mg of lycopene. On study days 15, 29, 43, and 57, overnight fasting bloods (10 mL) were collected, and 1) plasma carotenoids, 2) antioxidant capacity in both the aqueous and lipid compartments, 3) lipid peroxidation, and 4) DNA damage will be measured in these samples. In addition, 70 mL of fasting blood was collected at days 1 and 57 for the analysis of gene expression profiling in peripheral blood mononuclear cells using high-density filter-based cDNA microarrays. On study day 57, an additional 3 ml of blood was collected to measure the hemoglobin level.
Plasma carotenoid concentrations were measured by a HPLC system as previously described with minor modification (Yeum K J et al. Am J Clin Nutr 1996; 64:594-602). Plasma sample (200 μL) was extracted with 2 mL of chloroform:methanol (2: 1) followed by 3 mL of hexane. Samples were dried under nitrogen and resuspended in 75 μL ethanol:methyl tert-butyl ether (2:1) of which 25 μL was injected onto the HPLC. The HPLC system consisted of a Waters 2695 Separation Module, 2996 Photodiode Array Detector, a Waters 2475 Multi X Fluorescence Detector, a C30 carotenoid column (3 μm, 150×3.0 mm, YMC, Wilmington, N.C.), and a Waters Millenium 32 data station. The mobile phase was methanol:methyl tert-butyl ether:water (85:12:3 with 1.5% ammonium acetate in water; […]) and methanol:methyl tert-butyl ether:water (8:90:2 with 1% ammonium acetate in water; […]). The gradient procedure has been reported earlier (Yeum K J et al. Am J Clin Nutr 1996; 64:594-602). Results were adjusted by an internal standard containing echinenone and retinyl acetate. The CV for interassay (n=25) is 4% and intra assay Is 4% (n=9). […]

lymphocyte DNA [2] = assay: Basal (endogenous) lymphocyte DNA damage, alkaline single cell gel electrophoresis (comet) assay; format: in vivo, human; details: for basal lymphocyte DNA damage: women 50-70 yr, mixed 4 mg each/d, single carotenoid 12 mg/d, Means ± SD; for basal DNA damage, percent of comet tail ratio (each day value divided by day 1): d 57, different from placebo p<0.005, FIG. 6; for basal (endogenous) DNA damage compared to day 1: day 15
Experimental: as §1, §2
(§3) DNA breaks and oxidized pyrimidine bases were measured using the alkaline comet assay (Duthie et al Cancer Res 1996; 56:1291-1295). The comet assay, also called the Single Cell Gel Assay, was used to detect DNA damage and repair at the level of single cells. The Comet Assay is a rapid, sensitive test for DNA damage detection (e.g., single- and double-strand breaks, oxidative-induced base damage, and DNA-DNA/DNA-protein cross linking) by electrophoresis. The Comet Assay involves the following steps: 1. Slide preparation (i.e., mixing of cells with low melting agarose, and spread over glass microscope slides); 2. Lysis: (i.e., lysis of cell membrane and other proteins); 3. Unwinding of DNA; 4. Electrophoresis; 5. Neutralization; and 6. Staining and scoring. Cells embedded in agarose on a microscope slide are lysed with non-ionic detergent and high salt, leaving supercoiled matrix-attached DNA in a nucleoid. Under alkaline electrophoresis, DNA with breaks extends towards the anode, forming a “comet tail” when viewed by fluorescence microscopy. The percentage of total fluorescence in the tail is linearly related to DNA break frequency up to about 2 per 10^9 daltons.
(§4) Lymphocyte separation: Lymphocytes were separated immediately after blood samples were collected. Lymphocytes were isolated by density gradient sedimentation (Histopaque 1077, Sigma diagnostic, St. Louis, USA) and frozen in 50% fetal calf serum, 40% culture medium (RPMI 1640, Sigma diagnostic, St. Louis, USA ) and 10% dimethyl sulfoxide to −-80° C. at −1° C./min freezing rate before store in liquid nitrogen.
(§5) Cryopreserved lymphocytes recovery: Cells were recovered by submerging in 37° C. water bath until last trace of ice has melted. Cells were transferred to prechilled 50% RPMI 1640 medium and 50% fetal calf serum and centrifuged at 200 g for 5 min at 4° C. Cells were resuspended in cold PBS and checked for viability (typically 95% viability) and cell number (typically 1×10^5 cells/mL). The lymphocytes of five time points (d1, 15, 29, 43 & 57) were recovered at the same time.
(§6) Alkaline single cell gel electrophoresis: DNA strand breaks were measured in lymphocytes with the alkaline single cell gel electrophoresis, comet assay, (Collins A R. Methods Mol Biol 2002; 203:163-77) with minor modifications. The endogenous DNA damage as well as hydrogen peroxide challenged DNA damage were determined by exposing the agarose embedded with cells to PBS or H2O2 in PBS (10 μM) for 10 min respectively.
(§7) Quantitation of DNA damage: The DNA damage was determined by visual image analysis (Collins A R et al. Methods Mol Biol 2002; 186:147-59). […]

lymphocyte DNA [3] = assay: Hydrogen peroxide induced lymphocyte DNA damage, comet assay; format: in vivo, human; details: for hydrogen peroxide induced lymphocyte DNA damage: DNA challenged with 10 μM H2O2 for 10 min, Means ± SD; for H2O2 induced DNA damage compared to day 1: after 56-day intervention (d 57), H2O2 10 micromolar for 10 min, p<0.05
Experimental: as §1, §2, §3, §4, §5, §6, §7

plasma lycopene concentrations, change [1]: significantly lower levels | plasma β-carotene levels, change [1]: did not show any increase
Compound: CC1=C[C@H](O)CC(C)(C)[C@H]1/C=C/C(C)=C/C=C/C(C)=C/C=C/C=C(C)/C=C/C=C(C)/C=C/C1=C(C)C[C@@H](O)CC1(C)C [Lutein, lutein]
basal lymphocyte DNA damage (lymphocyte DNA [2]; Day 01 (baseline)): 10.6 ± 1.4% | basal lymphocyte DNA damage (lymphocyte DNA [2]; Day 15): 9.4 ± 2.1% | basal lymphocyte DNA damage (lymphocyte DNA [2]; Day 29): 9.5 ± 1.4% | basal lymphocyte DNA damage (lymphocyte DNA [2]; Day 43): 7.7 ± 1.5^b % | basal lymphocyte DNA damage (lymphocyte DNA [2]; Day 57): 7.1 ± 1.7*^c % | basal DNA damage, percent of comet tail ratio (each day value divided by day 1) (lymphocyte DNA [2]): significantly decreased | hydrogen peroxide induced lymphocyte DNA damage (lymphocyte DNA [3]; Day 01 (baseline)): 42.8 ± 6.8% | hydrogen peroxide induced lymphocyte DNA damage (lymphocyte DNA [3]; Day 15): 43.5 ± 6.2% | hydrogen peroxide induced lymphocyte DNA damage (lymphocyte DNA [3]; Day 29): 43.1 ± 5.6% | hydrogen peroxide induced lymphocyte DNA damage (lymphocyte DNA [3]; Day 43): 41.5 ± 9.3% | hydrogen peroxide induced lymphocyte DNA damage (lymphocyte DNA [3]; Day 57): 39.8 ± 8.4^a % | H2O2 induced DNA damage compared to day 1 (lymphocyte DNA [3]): did not show any significant change

plasma lutein levels, change [1]: no increase | plasma lycopene concentrations, change [1]: significantly increased | plasma β-carotene levels, change [1]: did not show any increase
Compound: CC(C)=CCC/C(C)=C/C=C/C(C)=C/C=C/C(C)=C/C=C/C=C(C)/C=C/C=C(C)/C=C/C=C(\C)CCC=C(C)C [Lycopene, lycopene]
basal lymphocyte DNA damage (lymphocyte DNA [2]; Day 01 (baseline)): 11.9 ± 2.6 % | basal lymphocyte DNA damage (lymphocyte DNA [2]; Day 15): 10.0 ± 3.5^a % | basal lymphocyte DNA damage (lymphocyte DNA [2]; Day 29): 9.0 ± 2.6^a % | basal lymphocyte DNA damage (lymphocyte DNA [2]; Day 43): 7.5 ± 1.9^b % | basal lymphocyte DNA damage (lymphocyte DNA [2]; Day 57): 6.8 ± 1.6*^c % | basal DNA damage, percent of comet tail ratio (each day value divided by day 1) (lymphocyte DNA [2]): significantly decreased | basal (endogenous) DNA damage compared to day 1 (lymphocyte DNA [2]): significantly decreased | hydrogen peroxide induced lymphocyte DNA damage (lymphocyte DNA [3]; Day 01 (baseline)): 50.5 ± 8.9 % | hydrogen peroxide induced lymphocyte DNA damage (lymphocyte DNA [3]; Day 15): 49.2 ± 10.1% | hydrogen peroxide induced lymphocyte DNA damage (lymphocyte DNA [3]; Day 29): 51.1 ± 3.5 % | hydrogen peroxide induced lymphocyte DNA damage (lymphocyte DNA [3]; Day 43): 50.0 ± 6.5% | hydrogen peroxide induced lymphocyte DNA damage (lymphocyte DNA [3]; Day 57): 42.5 ± 6.5^b % | H2O2 induced DNA damage compared to day 1 (lymphocyte DNA [3]): significantly improved; also recorded: significantly decreased

plasma lutein levels, change [1]: no increase | plasma lycopene concentrations, change [1]: significantly lower levels
Compound: CC1=C(/C=C/C(C)=C/C=C/C(C)=C/C=C/C=C(C)/C=C/C=C(C)/C=C/C2=C(C)CCCC2(C)C)C(C)(C)CCC1 [β-carotene]
basal lymphocyte DNA damage (lymphocyte DNA [2]; Day 01 (baseline)): 12.4 ± 2.7 % | basal lymphocyte DNA damage (lymphocyte DNA [2]; Day 15): 9.7 ± 2.4^b % | basal lymphocyte DNA damage (lymphocyte DNA [2]; Day 29): 8.6 ± 2.9^a % | basal lymphocyte DNA damage (lymphocyte DNA [2]; Day 43): 9.4 ± 2.4^a % | basal lymphocyte DNA damage (lymphocyte DNA [2]; Day 57): 8.0 ± 1.8^b % | basal DNA damage, percent of comet tail ratio (each day value divided by day 1) (lymphocyte DNA [2]): significantly decreased | basal (endogenous) DNA damage compared to day 1 (lymphocyte DNA [2]): significantly decreased | hydrogen peroxide induced lymphocyte DNA damage (lymphocyte DNA [3]; Day 01 (baseline)): 48.2 ± 6.1% | hydrogen peroxide induced lymphocyte DNA damage (lymphocyte DNA [3]; Day 15): 44.5 ± 8.9% | hydrogen peroxide induced lymphocyte DNA damage (lymphocyte DNA [3]; Day 29): 41.1 ± 6.2% | hydrogen peroxide induced lymphocyte DNA damage (lymphocyte DNA [3]; Day 43): 44.2 ± 5.7% | hydrogen peroxide induced lymphocyte DNA damage (lymphocyte DNA [3]; Day 57): 38.0 ± 4.8% | H2O2 induced DNA damage compared to day 1 (lymphocyte DNA [3]): significantly improved; also recorded: significantly decreased

Source: US20070082044A1, “Synergistic effect of compositions comprising carotenoids selected from lutein, beta-carotene and lycopene” (TRUSTEES OF TUFTS COLLEGE, priority 2004, published 2007)
